Structures can show the parent of a compound that is named as a salt.
Experiments:
[1] = Oral bioavailability and pharmacokinetics studies; format: in vivo, male Balb/c mice
Description: The studies were performed to determine the oral bioavailability and pharmacokinetics of test compounds in male Balb/c mice. Study was performed after obtaining the Institutional Animal Ethics Committee (IAEC) permission. Mice aged 5 to 6 weeks weighing around 25 to 30 g were used for this study. The animals were fasted overnight with free access to water. Animals were administered test compounds by oral route at a 50 mg/kg body weight (formulation: 0.5% methylcellulose in water and 0.1% tween 80. Dose volume 10 ml/kg b.w.) or intravenous route at a dose 10 mg/kg b.w. […] (formulation: 0.9% saline. Dose volume 10 ml/kg b.w.) Blood samples were collected at various time points during the next 24 hours post dose. The blood samples were centrifuged at 3000 g for 5 minutes at 4° C. and the corresponding plasma samples were collected in clean pre-labeled tubes. Then, each sample was subjected to a suitable extraction method and analysed by LC-MS/MS (API 3200 LC-MS/MS system). Data was analyzed using WinNonlin version 5.2 (Pharsight).

[2] = system: human HDAC (Hela cells nuclear extract); test: HDAC activity screening, Hela nuclear extract, Boc-Lys(Ac)-AMC substrate; format: biochemical; conditions: Hela nuclear extract; for IC50: read-out: IC50 (50% HDAC inhibitory concentration), Table 2; for HDAC % Inhibition (1 μM): 1 μM compound; for HDAC % Inhibition (10 μM): 10 μM compound
Description: To study the human HDAC inhibition the in-house 96 well plate assay have been established using fluorescent substrate (Boc-Lys (Ac)-AMC Substrate). Hela cells nuclear extract have been used as enzyme source.
Assay was performed in 96-well black microplate and total volume of the assay was 100 μL. Hela nuclear extract was diluted HDAC assay buffer (final concentration of 3.0 μg/mL). Enzyme mixture was made of 10 μL of diluted enzyme and 30 μL of HDAC buffer. 40 μl of enzyme mixture followed by 10 μL of test compound (final concentration from 0.01 to 10 μM) or vehicle (control) was added to each well. The plate was pre-incubated at 37° C. for 10 minutes. The HDAC reaction was started by adding 50 μl of HDAC substrate Boc-Lys (Ac)-AMC (Anaspec, Inc Fremont, Calif., USA). The plate was incubated at 37° C. for 45 minutes. The reaction was stopped by adding 50 μL of Trypsin stop solution and plate further incubated at 37° C. for 15 minutes. Measuring the fluorescence at excitation wavelength of 360 nm and emission wavelength of 460 nm monitored the release of AMC. Buffer alone and substrate alone served as blank.

PA-1 = test: Cell proliferation assay (MTT); format: cell-based; conditions: Homo sapiens, Table 1, MTT, 48 hours, read-out: Cell growth inhibition (GI50 in μM) PA-1
Description: (§1) Cells were seeded in a 96-well cell culture plates at a concentration of 10,000 cells per well and incubated at 37° C. in CO2 incubator.
(§2) Twenty-four hours later cells were treated with different concentrations (100, 10, 1, 0.1, and 0.01 μM) of compound dissolved in DMSO and incubated for 48 hours. For To measurement, 24 hours after seeding the cells, 20 μL of 3-(4.5-dimethyl-2- thiazolyl)-2,5-diphenyl-2H-tetrazolium (MTT) solution per well was added to the T0 plate and incubated for 3 hours at 37° C. in a CO2 incubator.
(§3) The plate containing cells and test compounds was treated similarly after 48 hours of incubation. After 3 hours of MTT addition, well contents were aspirated carefully followed by addition of 100 μL DMSO per well. Plates were agitated to ensure dissolution of the formazan crystals in DMSO and absorbance was read at 570 nm (A570). […] From the percentage growths a dose response curve was generated and GI50 values were interpolated from the growth curves.

PC-3 = test: Cell proliferation assay (MTT); format: cell-based; conditions: Homo sapiens, PC-3; Table 1; MTT, 48 hours; read-out: Cell growth inhibition (GI50 in μM) PC-3
Description: as §1, §2, §3

A549 = test: Cell proliferation assay (MTT); format: cell-based; conditions: Homo sapiens, A549; Table 1; MTT, 48 hours; read-out: Cell growth inhibition (GI50 in μM) A549
Description: as §1, §2, §3

[3] = plasma, oral 50 mg/kg, male Balb/c mouse

Structure (SMILES) | times higher AUC ([1]; compared with SAHA, oral) [times] | times longer terminal half life ([1]; compared with SAHA, oral) [times] | IC50 [2] [nM] | GI50 (PA-1) [µM] | GI50 (PC-3) [µM] | GI50 (A549) [µM] | HDAC % Inhibition (1 μM) [2] [%] | HDAC % Inhibition (10 μM) [2] [%] | bioavailability ([1]; plasma, oral 50 mg/kg vs intravenous, male Balb/c mouse) [%] | AUC(0-t) [1, 3] [ng·h/mL] | Cmax [1, 3] [ng/mL] | Tmax [1, 3] [min] | half-life [1, 3] [h]
CCN(CC)CCc1ccc(-c2cn(Cc3ccc(C(=O)NO)cc3)nn2)cc1 [Example 11, 4-{4-[4-(2-Diethylamino-ethyl)-phenyl]-[1,2,3]triazol-1-ylmethyl}-N-hydroxy-benzamide] | 9 | 2 | 18.6 |  |  |  |  |  |  |  |  |  | 
O=C(/C=C/c1ccc(Cn2cc(-c3ccc(CN4CCOCC4)cc3)nn2)cc1)NO [Example 20] |  |  | 19 | 0.16 ± 0.02 | 12.7 ± 5.6 | 2.9 ± 1.8 | 96 | 100 |  |  |  |  | 
CCN(CC)Cc1ccc(-c2cn(Cc3ccc(C(=O)NO)cc3)nn2)c(F)c1 [Example 13, 4-[4-(4-Diethylaminomethyl-2-fluoro-phenyl)-[1,2,3]triazol-1-ylmethyl]-N-hydroxy-benzamide] |  |  | 19.1 |  |  |  |  |  | 68 ± 6 | 3340 | 3360 | 4.8 | 2
CN(C)Cc1ccc(-c2cn(Cc3cccc(/C=C/C(=O)NO)c3)nn2)cc1 [Example 27, 3-{3-[4-(4-Dimethylaminomethyl-phenyl)-[1,2,3]triazol-1-ylmethyl]-phenyl}-N-hydroxy-acrylamide hydrochloride] |  |  | 1 | 0.02 | 4.5 ± 5.7 | 0.4 ± 0.2 | 99 | 99 |  |  |  |  | 
